The source of these data is patent US7723056B1, “Particles” (The University of Manchester, priority 1997, dated 2010).

The test system of this data set is erythrocytes. The experiment in a line: Haemoglobin assay of erythrocyte lysis. In kind it is cell-based, rats. The note with it: rat erythrocytes, no bacteria; haemoglobin at 578 nm; 100% = Triton X100. As to the method:
Fresh rats blood was obtained with sodium heparin added to prevent clotting. Following centrifugation at 600 g for 10 mins and discarding of the supernatant, the pelleted erythrocytes were resuspended and washed three times in isotonic sucrose-glucose phosphate buffer (0.2M sucrose, 0.1M glucose 10 mM sodium phosphate, pH 7.3). Erythrocytes were used on the same day.
Leakage of haemoglobin from the erythrocytes (50 μl aliquots) was assayed spectrophotometrically at 578 nm against isotonic sucrose glucose phosphate buffer. Percentage lysis of the erythrocytes was established by construction of a standard curve. The supernatant from the centrifuged cells (3.2) represented 0% whereas 100% lysis obtained by incubation with 20 ul 10% v/v Triton X100 for 10 minutes.
Cultures were centrifuged at 600 g for 10 minutes and the supernatant examined spectrophotometrically as described above to assess erythrocyte lysis. In the presence of particles (but no bacteria) erythrocyte lysis varied between 0.88 and 0.61% with a mean of 0.73%. Addition of M-GALA alone to erythrocytes produced a lysis of 0.31%. No lysis occurred for erythrocytes left in buffer only.

Residues, ends and D or L forms follow the SMILES beside them. *: point of attachment. Myristoyl = CCCCCCCCCCCCCC(=O)*

In turn, `CCCCCCCCCCCCCC(=O)N[C@@H](Cc1c[nH]c2ccccc12)C(=O)N[C@@H](CCC(=O)O)C(=O)N[C@@H](C)C(=O)N[C@@H](C)C(=O)N[C@@H](CC(C)C)C(=O)N[C@@H](C)C(=O)N[C@@H](CCC(=O)O)C(=O)N[C@@H](C)C(=O)N[C@@H](CC(C)C)C(=O)N[C@@H](C)C(=O)N[C@@H](CCC(=O)O)C(=O)N[C@@H](C)C(=O)N[C@@H](CC(C)C)C(=O)N[C@@H](C)C(=O)N[C@@H](CCC(=O)O)C(=O)N[C@@H](Cc1c[nH]cn1)C(=O)N[C@@H](CC(C)C)C(=O)N[C@@H](C)C(=O)N[C@@H](CCC(=O)O)C(=O)N[C@@H](C)C(=O)N[C@@H](CC(C)C)C(=O)N[C@@H](C)C(=O)N[C@@H](CCC(=O)O)C(=O)N[C@@H](C)C(=O)N[C@@H](CC(C)C)C(=O)N[C@@H](CCC(=O)O)C(=O)N[C@@H](C)C(=O)N[C@@H](CC(C)C)C(=O)N[C@@H](C)C(=O)N[C@@H](C)C(=O)O` [M-GALA, N, Myristic-GALA] (Myristoyl-WEAALAEALAEALAEHLAEALAEALEALAA-OH) displayed an erythrocyte lysis of 0.31%.
